Measurements reported in patent publication US10377774B2 (JINAN UNIVERSITY, priority 2013, dated 2019).
Marks after values point to notes of the source that are not given here.

How the values were obtained:
[1] = MTT cytotoxicity on normal cells, HUVEC; settings: human, HUVEC (human umbilical vein endothelial cells)
[2] = system: human leukemia cell line K562; assay: MTT cell growth inhibition, K562; format: cell-based; settings: Homo sapiens; K562, MTT assay, 72 h; read-out: IC50, growth of tumor cell line
Description: (§2) Experimental method: Cell lines (human non-small-cell lung cancer cell line A549, human colon cancer cell line LOVO, human nasopharyngeal carcinoma cell line CNE-2, human liver cancer cell line HepG2, human cervical carcinoma cell line Hela, human breast cancer cell lines MCF-7 and MDA-MB-231, human gastric carcinoma cell line NCI-N87, human prostatic cancer cell lines PC-3 and DU145, human leukemia cell line K562, human melanoma cell line A375, human neuroblastoma cell line SH-SY5H, human promyelocytic leukemia cell line HL-60, 5-FU-resistant human hepatocellular carcinoma cell line BEL-7402/5-Fu, doxorubicin-resistant hepatocellular carcinoma cell line HepG2/ADM, doxorubicin-resistant human breast cancer cell lines MCF-7/ADR) at logarithmic phase were resuspended in RPMI 1640 medium (containing 10% fetal bovine serum, 100 U/mL penicillin-streptomycin). Then, 100 μL of cells (cell concentration was 5×10^5/mL) were seeded into 96 wells plate. After 24 h incubation at 37° C. with 5% CO2, tested compounds were added (the control group without compound) for an additional 72 h incubation. After that, 30 μL of MTT [3-(4,5-Dimethylthiazol-2-yl)-2,5-diphenyltetrazolium bromide] solution (5 mg/mL) was added into each well and incubated for another 4 h at 37° C. and then the formazan crystals were solubilized with 100 μL DMSO. Finally, absorbance of each well was determined at 570 nm by a microplate reader (Thermo).
(§3) The concentration required to inhibit cell growth by 50% (IC50) was calculated from survival curves.

[3] = system: 5-FU-resistant human hepatocellular carcinoma cell line BEL-7402/5-Fu; assay: MTT cell growth inhibition, BEL-7402/5-Fu; format: cell-based; settings: Homo sapiens, Bel7402/5-FU, MTT assay, 72 h, read-out: IC50, growth of tumor cell line
K562 xenografts = K562 xenografts in nude mice; format: in vivo; settings: K562 xenograft nude mice
Method in brief: (§1)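 Female BALB/nu/nu mice received 1×10^7 cells subcutaneously and were randomized at 70–100 mm^3, six per group. Compounds were given at 1 mg/kg i.p. every two days for 8 doses, with saline as control. Tumor volume was calculated as V=½(ab^2), and body weight was monitored.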

[4] = system: human liver cancer cell line HepG2; assay: MTT cell growth inhibition, HepG2; format: cell-based; settings: Homo sapiens; HepG2, MTT assay, 72 h; read-out: IC50, growth of tumor cell line
Description: as §2, §3

[5] = system: human nasopharyngeal carcinoma cell line CNE-2; assay: MTT cell growth inhibition, CNE-2; format: cell-based; settings: Homo sapiens; CNE-2, MTT assay, 72 h; read-out: IC50, growth of tumor cell line
Description: as §2, §3

[6] = system: human melanoma cell line A375; assay: MTT cell growth inhibition, A375; format: cell-based; settings: Homo sapiens, A-375; A375, MTT assay, 72 h; read-out: IC50, growth of tumor cell line
Description: as §2, §3

[7] = system: human neuroblastoma cell line SH-SY5H; assay: MTT cell growth inhibition, SH-SY5H; format: cell-based; settings: Homo sapiens, Neuroblastoma cell, MTT assay, 72 h, read-out: IC50, growth of tumor cell line
[8] = system: human colon cancer cell line LOVO; assay: MTT cell growth inhibition, LOVO; format: cell-based; settings: Homo sapiens; LOVO (FAPα positive), MTT assay, 72 h; read-out: IC50, growth of tumor cell line
MDA-MB-231 xenografts = MDA-MB-231 xenografts in nude mice; format: in vivo, BALB/nu/nu mice; settings: MDA-MB-231 xenograft nude mice
Method in brief: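 Female BALB/nu/nu mice bearing subcutaneous MDA-MB-231 tumours (1×10^7 cells; 70–100 mm^3 at randomisation), six per group. Compounds given at 1 mg/kg i.p. every two days for 8 doses versus saline. Tumour volume (V=½ab^2) and body weight tracked.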

[9] = system: human breast cancer cell line MDA-MB-231; assay: MTT cell growth inhibition, MDA-MB-231; format: cell-based; settings: Homo sapiens; MDA-MB-231, MTT assay, 72 h; read-out: IC50, growth of tumor cell line
Description: as §2, §3

HL-60 xenografts = HL-60 xenografts in nude mice; format: in vivo; settings: HL-60 xenograft nude mice
Method in brief: as §1

HepG2 xenografts = HepG2 xenografts in nude mice; format: in vivo; settings: HepG2 xenograft nude mice
Method in brief: as §1

[10] = system: human cervical carcinoma cell line Hela; assay: MTT cell growth inhibition, Hela; format: cell-based; settings: Homo sapiens, MTT assay, 72 h, read-out: IC50, growth of tumor cell line
[11] = system: human non-small-cell lung cancer cell line A549; assay: MTT cell growth inhibition, A549; format: cell-based; settings: Homo sapiens; A549, MTT assay, 72 h; read-out: IC50, growth of tumor cell line
[12] = system: human promyelocytic leukemia cell line HL-60; assay: MTT cell growth inhibition, HL-60; format: cell-based; settings: Homo sapiens; HL-60, MTT assay, 72 h; read-out: IC50, growth of tumor cell line
Description: as §2, §3

Acute toxicity test = format: in vivo; settings: mouse, in vivo, ip; Kunming mice, injected intraperitoneally; read-out: LD50 (median lethal dose)
Description: Experimental method: Kunming mice were purchased from Guangdong Medical Experimental Animal Center, weighing 18-22 g, then randomly divided into several groups with 10 mice in each group. Different concentrations of VLB and vinca alkaloid dipeptide derivatives were injected intraperitoneally. Finally, the median lethal dose (LD50) was calculated according to the surviving animals.
LD50 was measured using the following formula:
LD50 (mg/kg)=The median lethal dose/body weight

[13] = system: doxorubicin-resistant hepatocellular carcinoma cell line HepG2/ADM; assay: MTT cell growth inhibition, HepG2/ADM; format: cell-based, human; settings: Homo sapiens, MTT assay, 72 h, read-out: IC50, growth of tumor cell line
[14] = system: human prostatic cancer cell line DU145; assay: MTT cell growth inhibition, DU-145; format: cell-based; settings: Homo sapiens; DU-145, MTT assay, 72 h; read-out: IC50, growth of tumor cell line
Description: as §2, §3

[15] = system: human gastric carcinoma cell line NCI-N87; assay: MTT cell growth inhibition, NCI-N87; format: cell-based; settings: Homo sapiens; NCI-N87, MTT assay, 72 h; read-out: IC50, growth of tumor cell line
Description: as §2, §3

[16] = MTT cytotoxicity on normal cells, LO2; settings: human, LO2 cells (human normal liver cells)
Description: Then, 100 μL of cells (cell concentration was 5×10^5/mL) were seeded into 96 wells plate. After 24 h incubation at 37° C. with 5% CO2, tested compounds were added (the control group without compound) for an additional 72 h incubation. After that, 30 μL of MTT [3-(4,5-Dimethylthiazol-2-yl)-2,5-diphenyltetrazolium bromide] solution (5 mg/mL) was added into each well and incubated for another 4 h at 37° C. and then the formazan crystals were solubilized with 100 μL DMSO. Finally, absorbance of each well was determined at 570 nm by a microplate reader (Thermo).
The standard curve was drew with compound concentrations as the abscissa and cell growth inhibition rates as the ordinate. The concentration required to inhibit cell growth by 50% (IC50) was calculated from survival curves.
Experimental method: In vitro cytotoxicities of vinca alkaloids, hydrazinolyzed vinca alkaloids and vinca alkaloid dipeptide derivatives on human normal liver cells LO2 and human umbilical vein endothelial cells HUVEC were detected according to the method of Example 2.

[17] = system: human breast cancer cell line MCF-7; assay: MTT cell growth inhibition, MCF-7; format: cell-based; settings: Homo sapiens, MCF7; MCF-7, MTT assay, 72 h; read-out: IC50, growth of tumor cell line
Description: as §2, §3

LOVO xenografts = LOVO xenografts in nude mice; format: in vivo; settings: LOVO xenograft nude mice
Method in brief: as §1

[18] = 1 mg/kg i.p. every two days, 8 administrations

Question: With `CC[C@]1(O)C[C@@H]2CN(CCc3c([nH]c4ccccc34)[C@@](C(=O)OC)(c3cc4c(cc3OC)N(C)[C@H]3[C@@](O)(C(=O)OC)[C@H](OC(C)=O)[C@]5(CC)C=CCN6CC[C@]43[C@@H]65)C2)C1` [Vinblastine, reference compound] as the molecule, how does the IC50 at 72 h [1] read?
Answer: The IC50 at 72 h was 0.76 ± 0.13 nM.

Question: And the IC50 [2]?
Answer: The IC50 was 0.72 ± 0.2 nM.

Question: What about the IC50 [3] of the same molecule?
Answer: The IC50 was 25.8 ± 3.01 nM.

Question: What about the “Anti-tumor rate (%)” value (K562 xenografts; 1 mg/kg) of the same molecule?
Answer: Its value is 49.81* %.

Question: What about the “Body weight (g) Post-dose” value (K562 xenografts; 1 mg/kg) of the same molecule?
Answer: The value was 17.4 ± 0.4 g.

Question: And the “Tumor weight” value (K562 xenografts; 1 mg/kg)?
Answer: Its value is 0.86 ± 0.10 g.

Question: And the “Body weight (g) Pre-dose” value (K562 xenografts; before dosing)?
Answer: The value was 21.9 ± 0.7 g.

Question: And the IC50 [4]?
Answer: Its IC50 is 3.07 ± 0.12 nM.

Question: What about the IC50 [5] of the same molecule?
Answer: The IC50 was 1.03 ± 0.07 nM.

Question: What about the IC50 [6] of the same molecule?
Answer: Its IC50 is 3.24 ± 0.39 nM.

Question: What about the IC50 [7] of the same molecule?
Answer: The IC50 was 6.13 ± 0.51 nM.

Question: What about the IC50 [8] of the same molecule?
Answer: Its IC50 is 1.2 ± 0.24 nM.

Question: What about the “Anti-tumor rate (%)” value (MDA-MB-231 xenografts; [18]) of the same molecule?
Answer: Its value is 53.26** %.

Question: What about the “Body weight (g) Post-dose” value (MDA-MB-231 xenografts; [18]) of the same molecule?
Answer: The value was 18.3 ± 2.4 g.

Question: What about the “Tumor weight” value (MDA-MB-231 xenografts; [18]) of the same molecule?
Answer: The value was 1.22 ± 0.35 g.

Question: And the “Body weight (g) Pre-dose” value (MDA-MB-231 xenografts; before dosing)?
Answer: Its value is 20.7 ± 1.4 g.

Question: And the IC50 [9]?
Answer: Its IC50 is 0.81 ± 0.35 nM.

Question: What about the “Anti-tumor rate (%)” value (HL-60 xenografts; 1 mg/kg) of the same molecule?
Answer: Its value is 52.89** %.

Question: What about the “Body weight (g) Post-dose” value (HL-60 xenografts; 1 mg/kg) of the same molecule?
Answer: The value was 16.2 ± 0.7 g.

Question: And the “Tumor weight” value (HL-60 xenografts; 1 mg/kg)?
Answer: The value was 0.98 ± 0.25 g.

Question: What about the “Body weight (g) Pre-dose” value (HL-60 xenografts; before dosing) of the same molecule?
Answer: The value was 19.4 ± 1.0 g.

Question: What about the “Anti-tumor rate (%)” value (HepG2 xenografts; 1 mg/kg) of the same molecule?
Answer: The value was 42.75* %.

Question: And the “Body weight (g) Post-dose” value (HepG2 xenografts; 1 mg/kg)?
Answer: Its value is 18.2 ± 1.8 g.

Question: And the “Body weight (g) Pre-dose” value (HepG2 xenografts; before dosing)?
Answer: The value was 21.9 ± 0.7 g.

Question: What about the IC50 [10] of the same molecule?
Answer: Its IC50 is 4.34 ± 0.36 nM.

Question: What about the IC50 [11] of the same molecule?
Answer: Its IC50 is 2.31 ± 0.13 nM.

Question: What about the IC50 [12] of the same molecule?
Answer: Its IC50 is 5.21 ± 0.84 nM.

Question: And the LD50 (Acute toxicity test)?
Answer: The LD50 was 4 mg/kg.

Question: And the IC50 [13]?
Answer: Its IC50 is 10.1 ± 1.12 nM.

Question: What about the IC50 [14] of the same molecule?
Answer: Its IC50 is 0.78 ± 0.31 nM.

Question: And the IC50 [15]?
Answer: The IC50 was 2.23 ± 0.43 nM.

Question: And the IC50 at 72 h [16]?
Answer: The IC50 at 72 h was 0.34 ± 0.07 nM.

Question: And the IC50 [17]?
Answer: The IC50 was 3.67 ± 1.34 nM.

Question: What about the “Anti-tumor rate (%)” value (LOVO xenografts; 1 mg/kg) of the same molecule?
Answer: Its value is 44.60* %.

Question: What about the “Body weight (g) Post-dose” value (LOVO xenografts; 1 mg/kg) of the same molecule?
Answer: The value was 19.6 ± 1.5 g.

Question: And the “Tumor weight” value (LOVO xenografts; 1 mg/kg)?
Answer: Its value is 1.59 ± 0.51 g.

Question: What about the “Body weight (g) Pre-dose” value (LOVO xenografts; before dosing) of the same molecule?
Answer: The value was 23.1 ± 1.4 g.
